SMILES	melting point [°C]
COC12CC(c3nnc(-c4cncc(Br)c4)o3)CN(C)C1Cc1cn(C)c3cccc2c13 (centres undefined)	183 to 186
O=Cc1cc(O)c(OCc2ccccc2)cc1O	147 to 148
COC(=O)Nc1c(C#N)cnn1-c1ccc(Cl)c(Cl)c1Cl	205 to 207
CCOC(=O)C(=O)Nc1ccc(OC)c(NC(=O)C(=O)OCC)c1	140 to 145
COc1ccc(C(=O)N(c2ccccc2)c2ccc(OCCCN(C)C)cc2)c(OC)c1	78.5 to 82.5
Cc1cccc2c1C(=O)C1(CC1)S2	128
COc1c([N+](=O)[O-])cc(C(C)=O)c2c1CCCC2	76 to 77
CCCCCCCCOC(=O)CCP(=O)(CCC(N)=O)Cc1cc(C(C)(C)C)c(O)c(C(C)(C)C)c1 (centres undefined)	154 to 157
C[Si](C)(C)CCOCn1cc(C#N)c(=O)c2cc([N+](=O)[O-])c(Cl)cc21	200 to 202
CC1(O)C=CC2C3CCC4=CC(=O)CCC4C3C(c3ccc(-c4ccc(C#N)cc4)cc3)CC21C (centres undefined)	206
COC(=O)C1=C(C)NC(C)=C(C(=O)OCCCCCCCCCCO)[C@H]1c1cccc2nonc12	120
COC(=O)c1c(NCc2ccc(OC)c(Cl)c2)nc(N2CCC(O)CC2)nc1N1CCn2ccnc2C1	191 to 194
CNc1ncc(-c2ccc(C)cc2)c(-c2ccc(C)cc2)n1	160 to 162
CCOCc1cc(CCCOc2c(C)cc(-c3noc(C(F)(F)F)n3)cc2C)on1	24 to 25
CC(C)[C@@H](NC(=O)c1cnc(N2CCC(N3C(=O)OCc4ccccc43)CC2)c(Cl)c1)C(N)=O	140 to 143
COc1cc(Nc2c(C#N)cnc3cc(-c4csc(C5OCCO5)c4)ccc23)c(Cl)cc1Cl	234 to 236
CCOCc1nc2c(N)nc(C)c(C)c2n1CCCC(=O)N1CCOCC1	156 to 158
N#Cc1c(N)sc(C=O)c1Sc1ccccc1	230
CCCCCCCc1ccc(C=Nc2ccc(C#N)cc2)cc1	32.7 to 33
Cc1cc(C=NNC(N)=S)ncc1[N+](=O)[O-]	220 to 222
Cc1nnc(-c2ccc3occ(-c4ccc5c(c4)C(C)(C)CS5)c3c2)o1	159 to 160
CC(=O)OCCCOc1ccc2nc3c(cc2c1)NCN3	301 to 303
COCCc1ccc(OCC(O)CO)cc1 (centres undefined)	25
NS(=O)(=O)c1ccccc1CSc1ncccn1	128 to 130
COC(=O)CC1C(=O)Nc2cc(S(N)(=O)=O)sc2S1(=O)=O (centres undefined)	223 to 225

SMILES	melting point [°C]
CCOc1ccc2[nH]c(SCc3cccn4ccnc34)nc2c1	157 to 160
C=C(C)COc1cc(C)c(NC=O)c(C)c1CC(=C)C	109
CC(C)c1cc(C(C)C)c(SSc2c(C(C)C)cc(C(C)C)cc2C(C)C)c(C(C)C)c1	93 to 94
O=C(O)C1(C(=O)O)CCOCCOCCOCCOCC1	107 to 111
CC(C)=CC(O)C(Cl)(Cl)Cl (centres undefined)	83
COCCOc1cc(NS(=O)(=O)c2ccccn2)c2[nH]c(C3=NCC(CN4CCS(=O)(=O)CC4)S3)cc2c1 (centres undefined)	218 to 219
O=C(Nc1c[nH]nc1C(=O)NCCCOc1ccccc1)c1ccccn1	182 to 184
O=P(NP(=S)(Oc1ccccc1)Oc1ccccc1)(Oc1ccccc1)Oc1ccccc1	103 to 105
Cc1nc(-c2ccccc2)n(C)c1C=NOCCO	95 to 97
Cc1cc(C)n2nc(NS(=O)(=O)c3cc(Cl)ccc3Cl)nc2n1	216 to 218
N#Cc1sc(Cl)c(Cl)c1Cl	63 to 64
CCCc1nc2c(N)nc(C)c(C)c2n1CCCO/N=C(\C)c1ccccc1	125 to 127
CCCOC1CCCC(C2NC(=O)C2C(C)O[Si](C)(C)C(C)(C)C)C1O (centres undefined)	119 to 121
O=C(COc1ccc(C(=O)C(=O)O)cc1)NC1CCCCCCC1	139 to 140
OC(CC1CCNCC1)c1cc(-c2ccccc2)nc2ccccc12 (centres undefined)	147
CC(=O)c1ccc(S(=O)(=O)NCCN(C)C)cc1	87 to 89
COc1ccc2c(c1)c(=O)c(CO)cn2C	194 to 197
CCc1[nH]nc2c1C(=O)c1c(NC(=O)CN3CCC(CN)CC3)cccc1-2	174 to 176
CCC1c2cc(OC)c(OC)cc2C(C=Cc2ccc(N)cc2)=NN(C(C)=O)C1C (centres undefined)	104 to 106
CN(C)C(=O)c1ccc(I)cc1	103 to 106
N#Cc1ccc(C2=NOC3(CCN(C(=O)CCCC(=O)O)CC3)C2)cc1	183 to 185
Cc1ccc(C)c(Cn2[nH]c(N)cc2=O)c1	124
N#CC(SCCc1ccc2c(c1)OCO2)C(=O)O (centres undefined)	106 to 107
CC(=O)Nc1nc(CCc2ccc(CC(=O)O)s2)cs1	172 to 174

Second part, the compound after the results:

melting point [°C]	SMILES
125 to 127	CC(=O)Nc1ccc(C(=O)c2cc(-c3ccc(Cl)cc3)c(N3CCOCC3)s2)cc1
54 to 56	COc1ccc(C(=O)CC2CCCCCCC2=O)cc1 (centres undefined)
202	COc1ccc(N(C)C(=O)CN(C(=O)CNC(=O)Nc2cccc(C)c2)c2ccccc2)cc1
168 to 170	CCc1cccc(C=CC(=O)CCCc2ccccc2)c1NC(=O)CC1c2ccccc2Oc2ccccc21
177 to 178	CCOc1nn(Cc2ccc(OCc3nc4ccccc4n3C)cc2)cc1CCC(=O)O
75 to 77	COC(=O)c1ccc(S(=O)Cc2cccc(Cl)c2)cn1 (centres undefined)
226 to 228	O=C(CN1c2nc(-c3ccncc3)cc(=O)n2CCC1c1ccccc1)c1ccc2ccccc2c1 (centres undefined)
193 to 196	O=C(Nc1ccc2c(c1)OCC(=S)N2)C(=O)N1CCC(Cc2ccccc2)CC1
58 to 61	N[C@@H](Cc1ccc(OCc2ccccc2)cc1)C(=O)NCCN1CCCCC1
107 to 110	CCc1nc2c(cnn2CC)c(NC2CCOCC2)c1CNC(=O)c1cc(C)cc(C(=O)NCc2ccc(F)c(-c3cccc(C=O)c3)c2)c1
250 to 251	Cc1ccc(Sc2c(SCc3ccccc3)cc(C(=O)O)cc2S(N)(=O)=O)cc1
81 to 86	FCc1cc(Cl)n2nc(SCc3ccccc3)nc2n1
121	COC(=O)C(c1ccc(Cl)cc1)c1c(Cl)cc(-n2ncc(=O)[nH]c2=O)cc1Cl (centres undefined)
244 to 247	O=C(O)c1cnn(-c2ccc(F)cc2)c1
165 to 166	Cc1c(C(=O)OCc2ccccc2)sc(NC(=O)c2cccnc2)c1C(=O)OC(C)(C)C
113	CCN(CC)C(=O)C=Cc1ccc(-c2ccccc2)cc1
208	O=c1c2cc(F)c(F)cc2nc(C(S)c2ncnc3[nH]cnc23)n1-c1ccccc1Cl (centres undefined)
> 250	CN1CCN(c2ccnc3c(NC(=O)c4c(Cl)cccc4Cl)cc(Cl)cc23)C1=O
188 to 190	O=C(Nc1cc(F)c(-c2cccnc2)c(F)c1)OCc1ccccc1
165 to 168	O=S(=O)(c1[nH]c(-c2ccc(Cl)cc2)c(Br)c1Br)C(F)(F)F
79	CC(=O)Nc1ccc(C(=O)NC(=O)N2CCC(Oc3ccc(Cl)cc3)CC2)cc1
238 to 239	O=C(O)C1=Cc2cc(Cl)c(Oc3cccnc3)cc2OC1C(F)(F)F (centres undefined)
152 to 153	CC(=O)N(c1ccccc1)c1ccc(C(=O)CBr)cc1
105 to 109	CCOC(=O)C(=O)C(C#N)c1cccc(Oc2ccccc2)c1 (centres undefined)
91 to 92	CCS(=O)(=O)N(Cc1cccnc1)c1ccc(F)cc1F

melting point [°C]	SMILES
59 to 62	CCCCc1oc2ccccc2c1C(=O)NCc1ccc2c(-c3ccc(Cl)cc3)c(OC(Cc3ccccc3)C(=O)OC)ccc2c1 (centres undefined)
98 to 99	CCC(=O)c1ccc(-c2ccccc2)cc1
127	COc1ccc(C=NS(=O)(=O)c2ccc(C)cc2)cc1
118 to 120	Cc1c(C)c2c(c(C)c1NCc1ccc(F)cc1)C(c1ccc(F)cc1)C(C)(C)O2 (centres undefined)
97 to 97.5	O=C1CCCN1CCCN=c1sc2ccc(Cl)cc2s1
83.3	Cc1cc(C)cc(C(=O)N2CCC(N3CCC(OC(=O)c4cc(Cl)cc(Cl)c4)CC3)CC2Cc2ccccc2)c1 (centres undefined)
> 340	O=c1[nH]c2sc3ccc(Cl)cc3c2[nH]c1=O
229 to 231	CC(C)(C)c1ccc(CBr)cc1NC(=O)CC1c2ccccc2Oc2ccccc21
329 to 330	O=c1[nH]c2cccnc2c2nc(-c3ccccc3)cn12
100 to 101	CCCC(=O)c1cnc2c(C)cccc2c1Nc1c(C)cccc1C
113 to 116	O=C(Nc1ccc(-n2nc(C(F)(F)F)cc2C(F)(F)F)cc1)C1CCCO1 (centres undefined)
176 to 178	N#Cc1c(N2CCCCC2)cc(-c2ccc(F)cc2)c2c1-c1ccccc1C2
158 to 160	N#Cc1c[nH]c(-c2ccccc2F)c1
160	CC(C)OC(=O)N1Cc2c(-c3ccc(F)cc3)ncn2-c2ccccc21
190 to 193	CN(C)C(=O)Cc1c(C(=O)c2ccccc2)[nH]c2cc(Cl)ccc12
195 to 196	COC(=O)c1ccc(Oc2c(C)n(CC(=O)O)c3ccc(F)cc23)cc1
199 to 200	COC(=O)c1cc(N)c(Oc2ccccc2)c(N2C(=O)CCC2=O)c1
145 to 150	CN(C(=O)CN1C(=O)C(NC(=O)Nc2cccc(C#N)c2)N=C(CN2CCCCC2)c2ccccc21)c1ccccc1 (centres undefined)
154 to 155	CCCCOc1cc(C(=O)O)n(Cc2ccc(Cl)cc2Cl)n1
122 to 124	CCCCc1nc2ccccn2c(=O)c1-c1ccc(Cl)c(C)c1
121 to 122	CC(=O)c1c(-c2ccccc2Cl)nc2occn12
166 to 168	COC(=O)c1cccc2c1N=C(c1ccccc1Cl)CC2=O
94 to 97	CN(CCC1CCN(c2noc3cc(F)ccc23)CC1)C(=O)c1noc2ccccc12
220	O=C(c1c(F)cccc1F)N1CS(=O)CN(c2ccc(Cl)cc2)C1=O (centres undefined)
93	Cc1ccccc1-c1cn2ccc3ccccc3c2n1

Reference: a melting point compilation (Tetko et al.; mined from patent text by program, amines drawn as free bases though some values may be those of a salt)
